Laboratory results from PMC7966987, “Insights into the catalytic properties of the mitochondrial rhomboid protease PARL” (The Journal of Biological Chemistry, 2021).

What was measured:
human PARLΔ55 [1] = biological target: T1, human PARLΔ55 (Homo sapiens, UniProt Q9H300); assay: IQ-peptide substrate cleavage kinetics, full-length PARLΔ55 in detergent; assay type: biochemical; details: for Km / kcat (turnover rate) / kcat/KM (catalytic efficiency): PARLΔ55 0.8 μM in 0.1% DDM with CL, 50 mM Tris-HCl pH 7.0, 150 mM NaCl, 10% glycerol, 5% DMSO, 37 °C, fluorescence, mean ± SEM
T1 construct: to generate full-length (FL) starting at residue 55 or the β-cleavage form truncated at residue 77; GFP-hexahistidine (behind a TEV cleavage site) (C, cleaved yes); made in house; host or cells: Pichia pastoris
T1 sequence (Q9H300 56-379): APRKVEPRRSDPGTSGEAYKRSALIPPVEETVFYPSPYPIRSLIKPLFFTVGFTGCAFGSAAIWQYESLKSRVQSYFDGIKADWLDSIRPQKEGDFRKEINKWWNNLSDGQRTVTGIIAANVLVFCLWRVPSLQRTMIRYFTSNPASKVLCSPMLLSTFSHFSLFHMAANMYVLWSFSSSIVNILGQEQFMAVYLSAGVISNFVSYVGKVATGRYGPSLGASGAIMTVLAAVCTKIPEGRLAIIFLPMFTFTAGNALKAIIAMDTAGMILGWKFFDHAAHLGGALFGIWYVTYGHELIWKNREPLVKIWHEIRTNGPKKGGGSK
Description: To further evaluate the cleavage of other known substrates of PARL, we adopted a more facile system to examine cleavage of multiple substrates and generated internally quenched (IQ) peptide substrates ([25], [36], [37], [38]) based on the amino acids flanking the PARL cleavage sites of PINK1 ([39]), PGAM5 ([8]), and Smac/Diablo ([11]). […] The assay allowed us to determine the catalytic parameters for the three primary PARL substrates and examine the substrate specificity (Fig. 2, Tables S2–S4).
(§1) Assays with FRET-PINK1^70–134 were conducted as previously described ([26]). For EDANS/Dabcyl 10-mer IQ peptides (PINK1, PGAM5, Smac/Diablo), lyophilized peptides were initially dissolved in DMSO to obtain a stock solution. The IQ peptide substrates in a concentration range of 0.1–70 μM were incubated with activity assay buffer (50 mM Tris-HCl pH 7.0, 150 mM NaCl, 10% glycerol, 0.1% DDM) in a 384-well black-bottomed plate at 37 °C for 30 min in a multiwell plate reader (SynergyMx, BioTek). For all concentrations of IQ peptide, the DMSO was kept constant at 5%. Following preincubation, PARL was added to a final concentration of 0.8 μM to initiate the cleavage reaction. Fluorescence readings were taken every 3 min over a 3 h time course at ƛex = 336 nm and ƛem = 490 nm. The initial velocity was determined from the fluorescence readings over the time course. For each substrate concentration, a no-enzyme control was subtracted to eliminate background fluorescence changes not related to substrate cleavage. Relative fluorescence units were converted to concentration (μM) by determining the maximum change in fluorescence observed for each substrate concentration when fully digested. GraphPad Prism software was used for Michaelis–Menten analysis of kinetic curves. All kinetic data were obtained using at least three biological replicates (different enzyme preparations) with technical duplicates for each experiment. For kinetic measurements in detergent with all three substrates, the activity assays were repeated at least five times. In addition, after each protease purification, the quality control of purified PARL was controlled by measuring its enzymatic activity. Minimum of three experimental replicates with two technical replicates were used for data analysis.

human PARLΔ55 [2] = biological target: T1, human PARLΔ55; assay: IQ-peptide substrate cleavage kinetics, PARLΔ55 in proteoliposomes; assay type: biochemical; details: PARLΔ55 in PLs (E. coli polar lipids), 50 mM Tris-HCl pH 7.0, 150 mM NaCl, 10% glycerol, no DDM, 37 °C; mean ± SEM
Description: To assess the activity of recombinant PARL toward known substrates in a lipid bilayer, full-length and β-truncated PARL were reconstituted in proteoliposomes (PLs) using Escherichia coli lipids that closely resemble the composition of the IMM ([31]). We determined that the EDANS/Dabcyl - FRET tags prevented incorporation of the substrates into PL; however, the substrate could still be cleaved since the active site is proposed to be near the lipid/water interface ([40], [41]) analogous to bacterial rhomboid proteases (Fig. 1). To calculate the specific activity of the protease, we quantified the fraction of PARL in the PLs with an outward facing active site using a membrane […] activity-based TAMRA-labeled fluorophosphonate probe ([42]). […] These values were used to calculate specific activity of the PARL protease. Next, we compared cleavage of three IQ-peptide substrates by reconstituted full-length mature PARLΔ55 and the β-truncated form, PARLΔ77 (Fig. 3, Tables S5 and S6).
as §1
E. coli polar lipids (Avanti), 400 μg in chloroform, were dried under nitrogen stream in a glass tube to yield a thin film of lipid. The tube was incubated overnight in a desiccator to completely remove all traces of solvent. In total, 50 μl of water and DDM detergent was added to the lipid film for resuspension at room temperature for 10 min, followed by the addition of purified PARL (400 μg) in 50 mM Tris-HCl, pH 8.0, 150 mM NaCl, 20% glycerol, 0.1% DDM, to yield the final weight ratio of 1 PARL:1 lipid:2 detergent. The detergent was slowly removed by the addition of SM2 Biobeads (Bio-Rad) while stirring on ice for 6 h to allow for the generation of proteoliposomes (PL); the process was controlled by the regimen of Biobead addition. To purify the PL, 50%:20% sucrose density gradient ultracentrifugation was used. A TAMRA probe (ThermoFisher) was used to determine the orientation of reconstituted PARL, which specifically and covalently labels serine residues of an enzymatically active serine protease. In total, 2 μM of TAMRA probe was added to PL samples and incubated for 1 h, allowing the TAMRA probe to label only the outward-facing accessible active sites. […]

Substance: (DABCYL)-AVFLAFGLGL-Glu(EDANS) [IQ-PINK1^99–108, internally quenched DABCYL/EDANS peptide substrate based on PINK1 PARL cleavage site]
- substrate turnover with PARLΔ55 compared with PARLΔ77 (human PARLΔ55 [1]): significantly lower substrate turnover
- Km (human PARLΔ55 [1]): 1.9 ± 0.4 µM
- kcat (turnover rate) (human PARLΔ55 [1]): 0.000117 ± 8.3e-06 s⁻¹
- kcat/KM (catalytic efficiency) (human PARLΔ55 [1]): 61.1 ± 22 M⁻¹ s⁻¹
- Km (human PARLΔ55 [2]): 13 ± 2 µM
- kcat (turnover rate) (human PARLΔ55 [2]): 0.0025 ± 0.00017 s⁻¹
- kcat/KM (catalytic efficiency) (human PARLΔ55 [2]): 190 ± 28 M⁻¹ s⁻¹

Substance: (DABCYL)-AVFLSAVAVG-Glu(EDANS) [IQ-PGAM5^20–29, internally quenched DABCYL/EDANS peptide substrate based on PGAM5 PARL cleavage site]
- substrate turnover with PARLΔ55 compared with PARLΔ77 (human PARLΔ55 [1]): significantly lower substrate turnover
- Km (human PARLΔ55 [1]): 0.47 ± 0.07 µM
- kcat (turnover rate) (human PARLΔ55 [1]): 0.000128 ± 5.6e-06 s⁻¹
- kcat/KM (catalytic efficiency) (human PARLΔ55 [1]): 278 ± 83 M⁻¹ s⁻¹
- Km (human PARLΔ55 [2]): 1.3 ± 0.2 µM
- kcat (turnover rate) (human PARLΔ55 [2]): 0.00133 ± 0.000333 s⁻¹
- kcat/KM (catalytic efficiency) (human PARLΔ55 [2]): 1000 ± 170 M⁻¹ s⁻¹

Substance: (DABCYL)-GVT LCAVPIA-Glu(EDANS) [IQ-Smac/Diablo^51–60, internally quenched DABCYL/EDANS peptide substrate based on Smac/Diablo PARL cleavage site]
- Km (human PARLΔ55 [1]): 6 ± 1 µM
- kcat (turnover rate) (human PARLΔ55 [1]): 0.000361 ± 2.8e-05 s⁻¹
- kcat/KM (catalytic efficiency) (human PARLΔ55 [1]): 83 ± 28 M⁻¹ s⁻¹
- Km (human PARLΔ55 [2]): 3.9 ± 0.7 µM
- kcat (turnover rate) (human PARLΔ55 [2]): 0.00153 ± 8.3e-05 s⁻¹
- kcat/KM (catalytic efficiency) (human PARLΔ55 [2]): 389 ± 83 M⁻¹ s⁻¹
